Results published in patent US20040204577A1, “Novel peptide-forming enzyme gene” (Ajinomoto Co., Inc., priority 2003, published 2004).
Where a SMILES comes first, the peptide text is derived from it.

Assays:
[1] = tested on: peptide-forming enzyme (Mono S fraction enzyme); assay: Enzyme substrate specificity (1)-(10), (13), (14): peptide production; format: biochemical, Empedobacter brevis; conditions: pH 9.0, 25° C., 3 hours
Method in brief: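 Mono S enzyme fraction in 100 mM borate buffer (pH 9.0) with 10 mM EDTA and 100 mM carboxy component (amino acid methyl esters or amides); amine components (L-glutamine, amino acids, amino acid amides or methylamine) at 150 mM, or 200 mM L-glutamine with varied esters. Reactions ran at 25° C for 2–3 hours; 0.1% Tween-80 added for Trp/Tyr-OMe.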

[2] = tested on: peptide-forming enzyme (Mono S fraction enzyme); assay: Production of L-alanyl-L-glutamine from L-alanine methyl ester and L-glutamine with enzyme fraction; format: biochemical, Empedobacter brevis; conditions: for L-Ala-L-Gln: L-alanine methyl ester hydrochloride 100 mM, 18° C., 2 hours
Experimental: On the other hand, there was hardly any production of L-Ala-L-Gln observed in an enzyme-non-added lot, and the […] was only about 0.07 mM after reacting for 120 minutes.

[3] = tested on: enzyme derived from Sphingobacterium sp. strain FERM BP-8124 (SP-Sepharose HP fraction enzyme); assay: Enzyme substrate specificity (11), (12): peptide production; format: biochemical; conditions: amides and methylamine; carboxy component 100 mM, amine component 150 mM, 0.33 units enzyme, pH 9.0, 25° C., 1.5 hours
Method in brief: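 Peptide and oligopeptide formation catalysed by SP-Sepharose HP-fraction enzyme from Sphingobacterium sp. FERM BP-8124; carboxy components used as hydrochloride salts, 0.1% Tween-80 final added with L-Tyr-OMe. Products quantified; "+" denotes detected but unquantified (no standard), "tr" trace.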

**Q.** What does the source list for C[C@H](N)C(=O)N[C@@H](CCC(N)=O)C(=O)O [L-Ala-L-Gln, L-alanyl-L-glutamine] (H-Ala-Gln-OH)?
**A.** Formed peptide ([1]; 100 mM L-alanine methyl ester hydrochloride, L-amino acid 150 mM): 79.3 mM; Formed peptide ([1]; L-amino acid amide hydrochloride as carboxy component 100 mM, L-amino acid 150 mM): 7.6 mM; Formed peptide ([1]; L-amino acid methyl ester hydrochloride 100 mM, 150 mM L-glutamine): 74.6 mM; Peptide formed, enzyme-added lot ([2]; 100 mM L-alanine methyl ester hydrochloride, 200 mM L-glutamine, 10 mM EDTA, pH 9.0, 18° C., FIG. 3): 83 mM; L-Ala-L-Gln ([2]; L-glutamine 100 mM): 68.2 mM; L-Ala-L-Gln ([2]; L-glutamine 110 mM): 72.1 mM; L-Ala-L-Gln ([2]; L-glutamine 120 mM): 73.3 mM; L-Ala-L-Gln ([2]; L-glutamine 130 mM): 75.1 mM; L-Ala-L-Gln ([2]; L-glutamine 150 mM): 75.5 mM; L-Ala-L-Gln ([2]; L-glutamine 200 mM): 82.0 mM; Produced peptide (Table 15-4) [3]: 0.3 mM
